The values below come from ChEMBL document CHEMBL5291721, “A preclinical secondary pharmacology resource illuminates target-adverse drug reaction associations of marketed drugs” (Nat Commun, 2023).

Assay [1] addresses Histamine H3 receptor (Homo sapiens, UniProt Q9Y5N1).
Assay [2] addresses T1, 5-hydroxytryptamine receptor 2B (Homo sapiens, UniProt P41595). The class given is functional, cell-based.
Assay [3] addresses 3',5'-cyclic-AMP phosphodiesterase 4D (Homo sapiens, UniProt Q08499). Type of assay: functional.
For assay [4], the target named is T2, Adenosine receptor A3 (Homo sapiens, UniProt P0DMS8).
T2 sequence (P0DMS8 whole entry): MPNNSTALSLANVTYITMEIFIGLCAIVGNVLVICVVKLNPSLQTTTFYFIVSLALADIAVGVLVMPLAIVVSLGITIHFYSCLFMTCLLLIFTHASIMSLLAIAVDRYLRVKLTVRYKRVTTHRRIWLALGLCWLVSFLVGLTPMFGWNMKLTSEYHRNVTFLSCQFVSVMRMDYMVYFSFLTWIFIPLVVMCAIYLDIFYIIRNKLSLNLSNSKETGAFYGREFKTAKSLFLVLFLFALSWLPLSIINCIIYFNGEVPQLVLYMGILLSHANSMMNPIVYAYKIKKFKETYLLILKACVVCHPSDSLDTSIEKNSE

In assay [5] the target is D(3) dopamine receptor (Homo sapiens, UniProt P35462).
D(3) dopamine receptor, sequence (P35462 whole entry): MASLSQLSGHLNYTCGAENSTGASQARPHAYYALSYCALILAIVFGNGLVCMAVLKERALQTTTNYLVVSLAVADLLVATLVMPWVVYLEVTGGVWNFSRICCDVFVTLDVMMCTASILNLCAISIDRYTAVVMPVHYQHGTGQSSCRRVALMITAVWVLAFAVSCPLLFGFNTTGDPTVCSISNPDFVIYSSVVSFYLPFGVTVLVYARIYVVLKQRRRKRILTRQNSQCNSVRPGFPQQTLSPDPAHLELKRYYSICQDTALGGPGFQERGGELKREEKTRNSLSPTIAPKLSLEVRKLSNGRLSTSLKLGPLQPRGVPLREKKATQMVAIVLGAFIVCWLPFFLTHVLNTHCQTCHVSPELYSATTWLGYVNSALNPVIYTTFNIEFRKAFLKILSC
Assay [6] deals with T3, Prostaglandin G/H synthase 1 (Rattus norvegicus, UniProt Q63921).
T3 sequence (Q63921 whole entry): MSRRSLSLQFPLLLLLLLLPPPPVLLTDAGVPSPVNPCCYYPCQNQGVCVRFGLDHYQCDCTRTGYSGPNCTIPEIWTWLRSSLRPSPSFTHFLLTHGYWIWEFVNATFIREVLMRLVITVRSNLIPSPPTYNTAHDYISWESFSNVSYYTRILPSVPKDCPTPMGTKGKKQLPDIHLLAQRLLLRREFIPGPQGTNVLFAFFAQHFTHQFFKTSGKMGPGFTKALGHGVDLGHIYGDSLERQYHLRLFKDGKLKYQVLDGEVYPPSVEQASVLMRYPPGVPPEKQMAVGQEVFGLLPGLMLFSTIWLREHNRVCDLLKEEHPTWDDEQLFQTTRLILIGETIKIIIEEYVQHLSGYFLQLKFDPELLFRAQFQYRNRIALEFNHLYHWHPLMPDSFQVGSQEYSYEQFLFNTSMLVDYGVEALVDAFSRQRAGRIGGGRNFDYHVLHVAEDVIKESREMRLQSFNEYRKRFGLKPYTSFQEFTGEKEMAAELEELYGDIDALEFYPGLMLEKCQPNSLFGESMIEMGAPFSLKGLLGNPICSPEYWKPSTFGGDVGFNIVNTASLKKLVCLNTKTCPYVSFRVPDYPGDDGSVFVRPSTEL
The class given is functional.

Assay [7] addresses T4, Alpha-1A adrenergic receptor (Homo sapiens, UniProt P35348).
T4 sequence (P35348 whole entry): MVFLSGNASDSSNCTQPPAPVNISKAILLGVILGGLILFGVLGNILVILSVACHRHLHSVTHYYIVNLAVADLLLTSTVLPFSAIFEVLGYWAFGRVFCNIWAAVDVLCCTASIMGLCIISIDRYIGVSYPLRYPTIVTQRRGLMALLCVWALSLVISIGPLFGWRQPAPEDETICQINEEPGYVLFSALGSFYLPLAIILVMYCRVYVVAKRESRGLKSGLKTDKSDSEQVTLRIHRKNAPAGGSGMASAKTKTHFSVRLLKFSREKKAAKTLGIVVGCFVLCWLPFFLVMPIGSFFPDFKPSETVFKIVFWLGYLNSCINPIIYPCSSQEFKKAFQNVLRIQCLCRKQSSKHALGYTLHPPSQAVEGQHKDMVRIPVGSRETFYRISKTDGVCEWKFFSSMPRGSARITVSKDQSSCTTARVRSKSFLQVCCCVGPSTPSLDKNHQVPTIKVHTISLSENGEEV

The target of assay [8] is T5, 5-hydroxytryptamine receptor 3A (Homo sapiens, UniProt P46098).
T5 sequence (P46098 whole entry): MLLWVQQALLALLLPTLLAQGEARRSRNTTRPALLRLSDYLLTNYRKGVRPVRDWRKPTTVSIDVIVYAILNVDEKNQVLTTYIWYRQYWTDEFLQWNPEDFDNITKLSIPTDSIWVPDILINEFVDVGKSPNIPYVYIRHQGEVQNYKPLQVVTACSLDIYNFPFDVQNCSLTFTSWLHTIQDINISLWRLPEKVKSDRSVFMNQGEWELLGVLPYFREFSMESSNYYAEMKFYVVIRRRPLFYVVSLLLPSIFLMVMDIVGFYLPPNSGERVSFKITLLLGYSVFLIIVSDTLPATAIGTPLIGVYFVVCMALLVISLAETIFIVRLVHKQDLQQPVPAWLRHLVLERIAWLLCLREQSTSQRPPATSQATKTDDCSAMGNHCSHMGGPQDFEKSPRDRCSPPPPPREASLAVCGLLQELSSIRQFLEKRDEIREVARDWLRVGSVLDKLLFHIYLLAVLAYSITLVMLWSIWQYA
Type of assay: functional.

Assay [9] has as its target Cannabinoid receptor 1 (Homo sapiens, UniProt P21554). Type of assay: functional, cell-based.
The target in assay [10] is T6, Adenosine receptor A1 (Homo sapiens, UniProt P30542).
T6 sequence (P30542 whole entry): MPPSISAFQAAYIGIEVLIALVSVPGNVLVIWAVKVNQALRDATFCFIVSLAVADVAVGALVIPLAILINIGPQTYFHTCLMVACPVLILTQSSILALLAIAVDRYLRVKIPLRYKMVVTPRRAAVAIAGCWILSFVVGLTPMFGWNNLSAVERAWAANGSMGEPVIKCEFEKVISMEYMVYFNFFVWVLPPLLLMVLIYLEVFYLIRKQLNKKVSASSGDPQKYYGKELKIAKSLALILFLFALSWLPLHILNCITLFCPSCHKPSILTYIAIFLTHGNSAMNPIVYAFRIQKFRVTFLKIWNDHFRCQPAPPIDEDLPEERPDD

The target in assay [11] is Voltage-dependent L-type calcium channel subunit alpha-1C (Rattus norvegicus, UniProt P22002). The class given is functional.
Voltage-dependent L-type calcium channel subunit alpha-1C, sequence (P22002 whole entry): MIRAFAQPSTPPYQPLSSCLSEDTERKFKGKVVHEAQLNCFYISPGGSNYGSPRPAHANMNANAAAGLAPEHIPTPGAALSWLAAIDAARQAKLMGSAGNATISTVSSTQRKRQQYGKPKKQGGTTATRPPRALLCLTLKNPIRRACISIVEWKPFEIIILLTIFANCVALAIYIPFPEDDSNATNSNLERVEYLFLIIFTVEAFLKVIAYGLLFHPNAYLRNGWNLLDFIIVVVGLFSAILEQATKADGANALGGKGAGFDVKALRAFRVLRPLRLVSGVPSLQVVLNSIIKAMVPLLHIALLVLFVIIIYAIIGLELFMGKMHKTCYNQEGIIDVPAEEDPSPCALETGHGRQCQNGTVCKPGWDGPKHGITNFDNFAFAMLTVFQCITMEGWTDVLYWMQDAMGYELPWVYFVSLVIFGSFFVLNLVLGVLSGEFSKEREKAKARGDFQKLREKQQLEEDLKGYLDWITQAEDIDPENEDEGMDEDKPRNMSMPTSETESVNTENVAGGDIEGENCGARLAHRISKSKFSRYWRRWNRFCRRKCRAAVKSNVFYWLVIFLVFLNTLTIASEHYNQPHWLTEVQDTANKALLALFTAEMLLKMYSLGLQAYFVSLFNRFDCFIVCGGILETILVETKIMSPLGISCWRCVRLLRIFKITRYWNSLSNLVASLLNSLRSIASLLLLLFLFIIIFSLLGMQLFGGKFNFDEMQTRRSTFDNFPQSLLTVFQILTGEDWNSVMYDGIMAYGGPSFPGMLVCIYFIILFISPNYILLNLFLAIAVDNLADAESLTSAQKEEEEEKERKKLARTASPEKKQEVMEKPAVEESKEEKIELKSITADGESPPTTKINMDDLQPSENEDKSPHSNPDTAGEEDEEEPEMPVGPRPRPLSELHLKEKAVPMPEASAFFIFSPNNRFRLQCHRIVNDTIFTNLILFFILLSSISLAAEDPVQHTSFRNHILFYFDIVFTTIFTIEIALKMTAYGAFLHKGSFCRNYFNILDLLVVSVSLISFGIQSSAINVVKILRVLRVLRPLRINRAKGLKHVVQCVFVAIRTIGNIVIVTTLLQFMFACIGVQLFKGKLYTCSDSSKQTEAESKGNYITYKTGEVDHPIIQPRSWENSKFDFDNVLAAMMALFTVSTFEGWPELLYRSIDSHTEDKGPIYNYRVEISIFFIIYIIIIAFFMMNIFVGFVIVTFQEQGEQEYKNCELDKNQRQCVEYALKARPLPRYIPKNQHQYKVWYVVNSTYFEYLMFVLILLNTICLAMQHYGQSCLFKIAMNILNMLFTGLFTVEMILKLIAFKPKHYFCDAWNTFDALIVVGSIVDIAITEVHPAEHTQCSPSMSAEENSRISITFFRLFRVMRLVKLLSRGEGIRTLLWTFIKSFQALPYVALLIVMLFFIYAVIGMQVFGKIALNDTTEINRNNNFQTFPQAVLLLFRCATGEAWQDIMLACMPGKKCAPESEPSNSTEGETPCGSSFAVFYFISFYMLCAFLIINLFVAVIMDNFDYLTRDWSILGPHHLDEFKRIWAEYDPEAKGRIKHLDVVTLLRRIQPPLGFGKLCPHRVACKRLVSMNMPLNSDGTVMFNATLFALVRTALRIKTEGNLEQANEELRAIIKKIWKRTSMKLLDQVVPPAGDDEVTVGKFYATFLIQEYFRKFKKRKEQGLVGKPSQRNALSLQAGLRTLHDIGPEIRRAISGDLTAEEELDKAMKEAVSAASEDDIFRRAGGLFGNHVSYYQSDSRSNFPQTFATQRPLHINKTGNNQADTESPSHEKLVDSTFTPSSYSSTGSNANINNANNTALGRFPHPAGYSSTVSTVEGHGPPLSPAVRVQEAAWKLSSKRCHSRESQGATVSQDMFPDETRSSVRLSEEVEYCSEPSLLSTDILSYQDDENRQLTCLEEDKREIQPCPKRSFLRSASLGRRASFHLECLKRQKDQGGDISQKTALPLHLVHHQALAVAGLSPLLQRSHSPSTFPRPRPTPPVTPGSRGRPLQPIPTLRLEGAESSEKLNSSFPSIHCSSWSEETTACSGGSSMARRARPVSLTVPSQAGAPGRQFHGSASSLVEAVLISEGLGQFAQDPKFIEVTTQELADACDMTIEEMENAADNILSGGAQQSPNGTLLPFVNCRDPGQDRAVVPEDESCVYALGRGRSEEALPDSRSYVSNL
The target of assay [12] is T1, 5-hydroxytryptamine receptor 2B. The class given is functional, cell-based. The source holds these as a separate data set.
Assay [13] deals with Mu-type opioid receptor (Homo sapiens, UniProt P35372).
Mu-type opioid receptor, sequence (P35372 whole entry): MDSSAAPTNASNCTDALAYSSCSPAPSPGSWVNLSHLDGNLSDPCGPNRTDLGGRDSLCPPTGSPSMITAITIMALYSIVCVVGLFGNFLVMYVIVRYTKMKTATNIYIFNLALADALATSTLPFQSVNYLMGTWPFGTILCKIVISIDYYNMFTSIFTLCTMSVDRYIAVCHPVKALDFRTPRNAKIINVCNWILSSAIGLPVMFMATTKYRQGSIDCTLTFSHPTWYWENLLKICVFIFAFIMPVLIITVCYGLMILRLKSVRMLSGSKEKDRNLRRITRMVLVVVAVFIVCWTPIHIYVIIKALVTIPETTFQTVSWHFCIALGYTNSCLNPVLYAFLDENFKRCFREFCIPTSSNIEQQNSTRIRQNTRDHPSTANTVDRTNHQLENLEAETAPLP
Note: assay procedure not described here.

3',5'-cyclic-AMP phosphodiesterase 4D, sequence (Q08499 whole entry): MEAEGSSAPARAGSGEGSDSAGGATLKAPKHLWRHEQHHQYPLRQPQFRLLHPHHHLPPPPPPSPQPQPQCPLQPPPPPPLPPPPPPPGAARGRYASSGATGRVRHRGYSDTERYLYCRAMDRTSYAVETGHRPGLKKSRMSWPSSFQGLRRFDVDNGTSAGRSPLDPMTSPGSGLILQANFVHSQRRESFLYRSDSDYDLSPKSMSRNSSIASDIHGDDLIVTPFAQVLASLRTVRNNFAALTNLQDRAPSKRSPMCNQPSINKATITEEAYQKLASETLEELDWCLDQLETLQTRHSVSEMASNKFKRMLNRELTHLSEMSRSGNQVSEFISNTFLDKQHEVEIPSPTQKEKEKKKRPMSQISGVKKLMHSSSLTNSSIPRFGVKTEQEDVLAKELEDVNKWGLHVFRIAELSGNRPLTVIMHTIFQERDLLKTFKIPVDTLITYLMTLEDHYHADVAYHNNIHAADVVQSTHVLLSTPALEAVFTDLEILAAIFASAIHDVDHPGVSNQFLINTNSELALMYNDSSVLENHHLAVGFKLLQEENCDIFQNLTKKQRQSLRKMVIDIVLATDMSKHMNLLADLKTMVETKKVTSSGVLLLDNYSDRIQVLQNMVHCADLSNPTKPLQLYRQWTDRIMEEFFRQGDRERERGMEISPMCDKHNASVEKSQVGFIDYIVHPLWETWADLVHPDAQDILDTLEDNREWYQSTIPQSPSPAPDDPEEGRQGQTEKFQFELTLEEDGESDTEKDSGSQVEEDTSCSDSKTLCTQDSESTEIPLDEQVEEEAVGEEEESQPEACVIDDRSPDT
Histamine H3 receptor, sequence (Q9Y5N1 whole entry): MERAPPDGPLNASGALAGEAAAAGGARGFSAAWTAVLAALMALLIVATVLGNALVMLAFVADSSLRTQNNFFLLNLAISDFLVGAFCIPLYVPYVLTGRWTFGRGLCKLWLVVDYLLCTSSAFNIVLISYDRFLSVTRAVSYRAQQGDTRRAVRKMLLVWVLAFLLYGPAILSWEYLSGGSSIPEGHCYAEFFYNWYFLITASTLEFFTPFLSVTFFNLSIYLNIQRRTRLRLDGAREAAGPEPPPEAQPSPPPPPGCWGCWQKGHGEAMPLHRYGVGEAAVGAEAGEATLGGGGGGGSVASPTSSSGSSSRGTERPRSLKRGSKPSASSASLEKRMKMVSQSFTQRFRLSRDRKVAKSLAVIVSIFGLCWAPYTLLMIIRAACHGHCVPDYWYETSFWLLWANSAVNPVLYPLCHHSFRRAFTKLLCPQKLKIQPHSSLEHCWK
T1 sequence (P41595 whole entry): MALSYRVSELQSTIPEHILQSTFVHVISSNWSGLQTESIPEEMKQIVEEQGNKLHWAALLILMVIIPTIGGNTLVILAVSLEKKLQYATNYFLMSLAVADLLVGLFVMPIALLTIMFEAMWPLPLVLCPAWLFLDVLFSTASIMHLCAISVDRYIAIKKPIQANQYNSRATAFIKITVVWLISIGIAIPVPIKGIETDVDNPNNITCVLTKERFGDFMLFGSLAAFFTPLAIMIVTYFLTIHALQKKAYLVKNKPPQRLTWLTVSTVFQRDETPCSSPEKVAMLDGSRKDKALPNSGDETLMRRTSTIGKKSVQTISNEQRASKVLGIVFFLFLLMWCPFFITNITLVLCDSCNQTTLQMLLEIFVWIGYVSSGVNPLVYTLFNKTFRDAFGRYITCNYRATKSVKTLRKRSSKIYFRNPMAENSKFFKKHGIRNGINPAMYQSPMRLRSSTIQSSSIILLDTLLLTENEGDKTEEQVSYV

As to `CCOC(=O)[C@H](CCc1ccccc1)N[C@@H](C)C(=O)N1CCC[C@H]1C(=O)O`, the AC50 was above 10 µM in assay [1]; above 10 µM in assay [2]; above 10 µM in [3]; above 30 µM in [4]; above 10 µM in assay [5]; above 30 µM in [6]. Also, the AC50 in [7] was above 10 µM; in assay [8], above 10 µM; in [9] it was above 30 µM; in assay [10], above 30 µM; in [11], above 10 µM; in [12], above 10 µM. For the same compound, in [13], the concentration at half-maximal activity (AC50) was above 10 µM.
Regarding `O=C(O)c1cc(-c2ccc(F)cc2F)ccc1O` [DIFLUNISAL], the AC50 was above 10 µM in assay [2]; above 30 µM in assay [3]; above 10 µM in assay [4]; above 30 µM in assay [5]; above 10 µM in assay [6]; above 30 µM in assay [7]. Further, the AC50 was above 30 µM in assay [8]; above 10 µM in assay [10]; above 10 µM in assay [11]; above 10 µM in assay [12]; above 30 µM in assay [13].
With `NS(=O)(=O)c1cc2c(cc1Cl)NCNS2(=O)=O` [HYDROCHLOROTHIAZIDE], the AC50 in [1] was above 10 µM; in assay [2], above 10 µM; in assay [3], above 10 µM; in [4] it was above 30 µM; in [5] it was above 10 µM; in assay [6], above 30 µM. Besides, the AC50 in assay [7] is above 10 µM; in assay [8] it was above 10 µM; in assay [10], above 30 µM; in [11], above 10 µM; in assay [12], above 10 µM; in [13], above 10 µM.
For `NC[C@H]1O[C@H](O[C@H]2[C@H](O)[C@@H](O[C@H]3O[C@H](CO)[C@@H](O)[C@H](N)[C@H]3O)[C@H](N)C[C@@H]2N)[C@H](O)[C@@H](O)[C@@H]1O` [KANAMYCIN], the AC50 in assay [2] is above 10 µM; in assay [3], above 30 µM; in assay [4] it was above 10 µM; in assay [5], above 30 µM; in [6] it was above 10 µM; in assay [7] it was above 30 µM. Also, the AC50 in assay [8] was above 30 µM; in assay [10], above 10 µM; in assay [11], above 10 µM; in assay [12], above 10 µM; in assay [13], above 30 µM.
As for `C[C@H]1C[C@@H]2[C@H]([C@@H](O)C[C@@]3(C)[C@H]2CC[C@]3(O)C(=O)CO)[C@@]2(C)C=CC(=O)C=C12` [METHYLPREDNISOLONE], the AC50 in assay [2] was above 10 µM; in assay [3], 16 µM; in assay [4], above 10 µM; in assay [5], above 30 µM; in assay [6], above 10 µM; in assay [7], above 30 µM. The AC50 in assay [8] was above 30 µM; in assay [10], above 10 µM; in [11], above 10 µM; in assay [12] it was above 10 µM; in assay [13] it was above 30 µM.
For the compound `CC(C)(C(=O)c1cccnc1)c1cccnc1` [METYRAPONE], the concentration at half-maximal activity (AC50) in assay [2] is above 10 µM; in assay [3] it was above 30 µM; in assay [4], above 10 µM; in [5], above 30 µM; in [6] it was above 10 µM; in assay [7] it was above 10 µM. Further, the AC50 in [8] is above 30 µM; in assay [10] it was above 10 µM; in [11], above 10 µM; in assay [12] it was above 10 µM; in assay [13], above 30 µM.
Take `CCc1nn(CCCN2CCN(c3cccc(Cl)c3)CC2)c(=O)n1CCOc1ccccc1` [NEFAZODONE]: the half-maximal activity concentration (AC50) in [2] was above 10 µM; in [3], above 10 µM; in [4] it was 11.9 µM; in assay [5], 1.2 µM; in [6], above 30 µM; in [7] it was 0.833 µM. The AC50 in assay [8] is above 10 µM; in [9], above 30 µM; in [10], above 30 µM; in [11] it was above 10 µM; in assay [12], 1.1 µM; in [13], 3.8 µM.
Take `COC(=O)C1=C(C)NC(C)=C(C(=O)OCC(C)C)C1c1ccccc1[N+](=O)[O-]` (configuration not stated) [NISOLDIPINE]: the AC50 in assay [2] was above 10 µM; in [3], 11 µM; in assay [4], 0.614 µM; in assay [5], 10 µM; in assay [6], above 10 µM; in assay [7], 16 µM. Besides, the AC50 in [8] is above 30 µM; in [9], above 30 µM; in assay [10], 20.4 µM; in assay [11], 4.62 µM; in [12], 17 µM; in assay [13] it was 9.4 µM.
Consider `NC1=NC(=O)C(c2ccccc2)O1` (configuration not stated) [PEMOLINE], for which the AC50 in assay [1] was above 10 µM; in [2], above 10 µM; in assay [3], above 30 µM; in assay [4], above 30 µM; in assay [5], above 30 µM; in assay [6], above 30 µM. Moreover, the AC50 in [7] was above 10 µM; in assay [8] it was above 30 µM; in assay [10], above 30 µM; in [11], above 10 µM; in assay [12], above 10 µM; in [13], above 30 µM.
`CNC(=O)c1cc(Oc2ccc(NC(=O)Nc3ccc(Cl)c(C(F)(F)F)c3)cc2)ccn1` [SORAFENIB]: the AC50 in [1] is above 30 µM; in assay [3] it was above 30 µM; in assay [4], 1.88 µM; in [5], above 30 µM; in assay [6], above 30 µM; in assay [7], above 10 µM. Further, the AC50 in assay [8], in assay [9], in assay [10], in [11] and in assay [13] was above 30 µM each time.
In the case of `NC[C@H]1CC[C@H](C(=O)O)CC1` [TRANEXAMIC ACID], the AC50 in [2] was above 10 µM; in [3], above 30 µM; in assay [4], above 10 µM; in assay [5] it was above 30 µM; in assay [6], above 10 µM; in assay [7], above 30 µM. Further, the AC50 in assay [8] was above 30 µM; in [10], above 10 µM; in [11], above 10 µM; in assay [12], above 10 µM; in [13], above 30 µM.
